Target: T1, Ubiquitin carboxyl-terminal hydrolase 19 (Homo sapiens, UniProt O94966)
T1 sequence (O94966 whole entry): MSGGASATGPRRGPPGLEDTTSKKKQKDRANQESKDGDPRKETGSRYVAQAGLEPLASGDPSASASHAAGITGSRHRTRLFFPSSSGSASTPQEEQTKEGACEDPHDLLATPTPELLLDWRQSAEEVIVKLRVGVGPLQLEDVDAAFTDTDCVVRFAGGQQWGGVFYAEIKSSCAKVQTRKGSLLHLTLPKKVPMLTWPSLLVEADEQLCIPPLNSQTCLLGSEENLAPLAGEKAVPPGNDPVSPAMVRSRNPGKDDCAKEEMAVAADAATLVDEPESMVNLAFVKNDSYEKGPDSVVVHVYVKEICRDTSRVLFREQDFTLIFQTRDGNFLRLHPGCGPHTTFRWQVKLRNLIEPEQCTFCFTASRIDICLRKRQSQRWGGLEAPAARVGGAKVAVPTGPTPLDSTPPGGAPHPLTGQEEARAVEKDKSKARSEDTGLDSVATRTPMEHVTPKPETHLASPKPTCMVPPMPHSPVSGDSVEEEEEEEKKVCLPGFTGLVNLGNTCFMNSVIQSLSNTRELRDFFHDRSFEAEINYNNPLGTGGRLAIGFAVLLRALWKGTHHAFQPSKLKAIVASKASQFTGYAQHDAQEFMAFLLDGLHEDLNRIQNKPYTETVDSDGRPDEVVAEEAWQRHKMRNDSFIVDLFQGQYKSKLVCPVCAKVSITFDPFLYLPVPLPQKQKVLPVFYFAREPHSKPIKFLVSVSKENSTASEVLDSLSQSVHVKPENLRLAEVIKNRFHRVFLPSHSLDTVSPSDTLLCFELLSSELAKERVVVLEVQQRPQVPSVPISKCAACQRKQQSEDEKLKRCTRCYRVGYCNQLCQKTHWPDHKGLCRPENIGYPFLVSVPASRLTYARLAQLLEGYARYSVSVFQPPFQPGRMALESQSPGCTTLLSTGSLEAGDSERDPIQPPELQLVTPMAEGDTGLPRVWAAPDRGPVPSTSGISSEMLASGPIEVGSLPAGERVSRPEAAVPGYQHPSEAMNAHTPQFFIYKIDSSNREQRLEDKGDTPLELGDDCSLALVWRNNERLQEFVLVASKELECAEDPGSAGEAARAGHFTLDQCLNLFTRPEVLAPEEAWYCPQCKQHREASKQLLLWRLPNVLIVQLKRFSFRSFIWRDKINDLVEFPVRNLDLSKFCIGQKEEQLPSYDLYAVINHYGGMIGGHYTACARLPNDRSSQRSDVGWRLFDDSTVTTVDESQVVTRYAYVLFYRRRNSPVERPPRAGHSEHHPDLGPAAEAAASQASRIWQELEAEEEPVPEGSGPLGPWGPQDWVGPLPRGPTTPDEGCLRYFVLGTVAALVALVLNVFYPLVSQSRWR
Assay: Inhibition of C-terminal His6-tagged recombinant human USP19 using iso-peptide ubiquitin-Lys-TAMRA as substrate incubated for 30 mins and measured after 90 mins by fluorescent polarization assay

Row | SMILES | IC50
1 | O=C(N1CC[C@@](O)(Cn2ccc(C3CC3)cc2=O)C2(CCCC2)C1)N1CCNC[C@H]1c1ccccc1 | < 500 nM
2 | O=C(N1CCC(O)(Cn2cc(F)c(-c3ccccc3)cc2=O)C2(CCCC2)C1)N1CCNC[C@H]1c1ccccc1 (some centres not stated) | < 500 nM
3 | O=C(N1CCC(O)(Cn2cnc(-c3ccccc3)cc2=O)C2(CCOCC2)C1)N1CCOC[C@H]1c1ccccc1 (some centres not stated) | < 500 nM
4 | CC1(C)CN(C(=O)N2CCOC[C@H]2c2ccccc2)CC[C@@]1(O)Cn1cnc(-c2ccccc2)cc1=O | < 500 nM
5 | O=C(N1CC[C@@](O)(Cn2ccc(N3CCCC3)cc2=O)C2(CCCC2)C1)N1CCNC[C@H]1c1ccccc1 | < 500 nM
6 | Cn1cc(-c2cc(=O)n(C[C@]3(O)CCN(C(=O)N4CCNC[C@H]4c4ccccc4)CC34CCCC4)cn2)cn1 | < 500 nM
7 | O=C(N1CCC(O)(Cn2cnc(-c3ccccc3)cc2=O)C2(CCCCC2)C1)N1CCOC[C@H]1c1ccccc1 (some centres not stated) | < 500 nM
8 | CNc1cc(=O)n(C[C@]2(O)CCN(C(=O)N3CCNC[C@H]3c3ccccc3)CC23CCCC3)cn1 | < 500 nM
9 | O=C(N1CC[C@@](O)(Cn2cnc(-c3ccc(F)cc3)cc2=O)C2(CCCC2)C1)N1CCNC[C@H]1c1ccccc1 | < 500 nM
10 | O=C(N1CC[C@@](O)(Cn2cnc(-c3ccccc3)cc2=O)C2(CCCC2)C1)N1CCOC[C@H]1c1ccc(F)cc1 | < 500 nM
11 | CC1(C)CN(C(=O)N2CCOC[C@H]2c2ccccc2)CC[C@@]1(O)Cn1ccc(-c2ccccc2)cc1=O | < 500 nM
12 | COc1ccccc1-c1cc(=O)n(C[C@]2(O)CCN(C(=O)N3CCNC[C@H]3c3ccccc3)CC23CCCC3)cn1 | < 500 nM
13 | O=C(N1CC[C@@](O)(Cn2cnc(N3CCCC3)cc2=O)C2(CCCC2)C1)N1CCNC[C@H]1c1ccccc1 | < 500 nM
14 | O=C(N1CC[C@@](O)(Cn2cnc(-c3ccccc3)cc2=O)C2(CCCC2)C1)N1CCS(=O)(=O)CC1c1ccccc1 (some centres not stated) | < 500 nM
15 | Cc1cc(=O)n(C[C@]2(O)CCN(C(=O)N3CCNC[C@H]3c3ccccc3)CC23CCCC3)cn1 | < 500 nM
16 | O=C(N1CC[C@@](O)(Cn2cnc(N3CCCC3)cc2=O)C2(CCCC2)C1)N1CCOC[C@H]1c1ccccc1 | < 500 nM
17 | O=C(N[C@H](c1ccccc1)C(F)(F)F)N1CC[C@@](O)(Cn2cnc(-c3ccccc3)cc2=O)C2(CCCC2)C1 | < 500 nM
18 | O=C(NCc1c(F)cccc1F)N1CC[C@@](O)(Cn2cnc(-c3ccccc3)cc2=O)C2(CCCC2)C1 | < 500 nM
19 | O=C(N1CCC(O)(Cn2cnc(-c3ccccc3)cc2=O)C2(CCC2)C1)N1CCOC[C@H]1c1ccccc1 (some centres not stated) | < 500 nM
20 | Cn1cc(-c2cc(=O)n(C[C@]3(O)CCN(C(=O)N4CCOC[C@H]4c4ccccc4)CC34CCCC4)cn2)cn1 | < 500 nM
21 | CN(C)c1ccc(-c2cc(=O)n(C[C@]3(O)CCN(C(=O)N4CCNC[C@H]4c4ccccc4)CC34CCCC4)cn2)cc1 | < 500 nM
22 | O=C(N1CCC(O)(Cn2ncc(-c3ccccc3)cc2=O)C2(CCCC2)C1)N1CCOC[C@H]1c1ccccc1 (some centres not stated) | < 500 nM
23 | O=C(NCc1ccccc1F)N1CCC(O)(Cn2cnc(-c3ccccc3)cc2=O)C2(CCCC2)C1 (configuration not stated) | < 500 nM
24 | O=C(N1CC[C@@](O)(Cn2cnc(-c3ccccc3)cc2=O)C2(CCOCC2)C1)N1CCNC[C@H]1c1ccccc1 | < 500 nM
25 | O=C(N1CCC(O)(Cn2cnc(-c3ccccc3)cc2=O)C2(CCCCC2)C1)N1CCNC[C@H]1c1ccccc1 (some centres not stated) | < 500 nM
26 | COc1cc(=O)n(C[C@]2(O)CCN(C(=O)N3CCNC[C@H]3c3ccccc3)CC23CCCC3)cn1 | < 500 nM
27 | O=C(NCc1cccc(F)c1F)N1CC[C@@](O)(Cn2cnc(-c3ccccc3)cc2=O)C2(CCCC2)C1 | < 500 nM
28 | Cn1nccc1-c1cc(=O)n(C[C@]2(O)CCN(C(=O)N3CCOC[C@H]3c3ccccc3)CC23CCCC3)cn1 | < 500 nM

Results, then the compound that gave them:

Row | IC50 | SMILES
29 | < 500 nM | Cn1cc(-c2ccn(C[C@]3(O)CCN(C(=O)N4CCNC[C@H]4c4ccccc4)CC34CCCC4)c(=O)c2)cn1
30 | < 500 nM | CC1(C)CN(C(=O)N2CCNC[C@H]2c2ccccc2)CC[C@@]1(O)Cn1ccc(-c2ccccc2)cc1=O
31 | < 500 nM | O=C(NCc1ccc(F)c(F)c1)N1CC[C@@](O)(Cn2cnc(-c3ccccc3)cc2=O)C2(CCCC2)C1
32 | < 500 nM | O=C(N1CCC(O)(Cn2cnc(-c3ccccc3)cc2=O)C2(CCCC2)C1)N1CCOCC1c1cccs1 (configuration not stated)
33 | < 500 nM | Cn1cc(-c2cc(=O)n(C[C@]3(O)CCN(C(=O)N4CCOC[C@H]4c4ccc(F)cc4)CC34CCCC4)cn2)cn1
34 | < 500 nM | CN(C)c1cc(=O)n(C[C@]2(O)CCN(C(=O)N3CCOC[C@H]3c3ccccc3)CC23CCCC3)cn1
35 | < 500 nM | O=C(N[C@H](c1ccccc1)C(F)(F)F)N1CC[C@@](O)(Cn2ccc(-c3ccccc3)cc2=O)C2(CCCC2)C1
36 | < 500 nM | O=C(N1CC[C@@](O)(Cn2cnc(Cl)cc2=O)C2(CCCC2)C1)N1CCOC[C@H]1c1ccc(F)cc1
37 | < 500 nM | N=S1(=O)CCN(C(=O)N2CC[C@@](O)(Cn3cnc(-c4ccccc4)cc3=O)C3(CCCC3)C2)C(c2ccccc2)C1 (some centres not stated)
38 | < 500 nM | Cn1nccc1-c1cc(=O)n(C[C@]2(O)CCN(C(=O)N3CCOC[C@H]3c3ccc(F)cc3)CC23CCCC3)cn1
39 | < 500 nM | O=C(N1CC[C@@](O)(Cn2cnc(-c3ccccc3F)cc2=O)C2(CCCC2)C1)N1CCNC[C@H]1c1ccccc1
40 | < 500 nM | CC1(C)CN(C(=O)N2CCNC[C@H]2c2ccccc2)CC[C@@]1(O)Cn1cnc(-c2ccccc2)cc1=O
41 | < 500 nM | O=C(N1CC[C@@](O)(Cn2cnc(C3CC3)cc2=O)C2(CCCC2)C1)N1CCNC[C@H]1c1ccccc1
42 | < 500 nM | O=C(N1CC[C@@](O)(Cn2ccc(-c3ccccc3)cc2=O)C2(CCCC2)C1)N1CCNC[C@H]1c1ccccc1
43 | < 500 nM | CN(C)C(=O)c1cn(C[C@]2(O)CCN(C(=O)N3CCOC[C@H]3c3ccccc3)CC2(C)C)c(=O)cc1-c1ccccc1
44 | < 500 nM | CN1CCN(C(=O)N2CC[C@@](O)(Cn3cnc(-c4ccccc4)cc3=O)C3(CCCC3)C2)[C@H](c2ccccc2)C1
45 | < 500 nM | O=C(N1CC[C@@](O)(Cn2cnc(-c3ccccc3)cc2=O)C2(CCCC2)C1)N1CCNC[C@H]1c1ccccc1
46 | < 500 nM | O=C(N1CC[C@@](O)(Cn2cnc(C3CC3)cc2=O)C2(CCCC2)C1)N1CCOC[C@H]1c1ccccc1
47 | < 500 nM | Cn1nccc1-c1ccn(C[C@]2(O)CCN(C(=O)N3CCNC[C@H]3c3ccccc3)CC23CCCC3)c(=O)c1
48 | < 500 nM | O=C(N1CCC(O)(Cn2cnc(-c3ccccc3)cc2=O)C2(CCC2)C1)N1CCNC[C@H]1c1ccccc1 (some centres not stated)
49 | < 500 nM | O=C(N1CC[C@@](O)(Cn2cnc(-c3ccccc3)cc2=O)C2(CCCC2)C1)N1CCSCC1c1ccccc1 (some centres not stated)
50 | < 500 nM | O=C(N1CC[C@@](O)(Cn2cnc(-c3ccccc3)cc2=O)C2(CCCC2)C1)N1CCN(CC(F)(F)F)C[C@H]1c1ccccc1
51 | < 500 nM | O=C(N1CC[C@@](O)(Cn2cnc(-c3ccccc3)cc2=O)C2(CCCC2)C1)N1CCNC[C@H]1c1cccc(F)c1
52 | < 500 nM | O=C(N1CCC(O)(Cn2cnc(-c3ccccc3)cc2=O)CC1)N1CCNC[C@H]1c1ccccc1
53 | < 500 nM | Cn1nccc1-c1cc(=O)n(C[C@]2(O)CCN(C(=O)N3CCNC[C@H]3c3ccccc3)CC23CCCC3)cn1
54 | < 500 nM | O=C(N1CC[C@@](O)(Cn2cnc(-c3cccc(F)c3)cc2=O)C2(CCCC2)C1)N1CCNC[C@H]1c1ccccc1
55 | < 500 nM | O=C(N1CC[C@@](O)(Cn2ccc(Cl)cc2=O)C2(CCCC2)C1)N1CCNC[C@H]1c1ccccc1
56 | < 500 nM | O=C(NCC1CC(F)(F)C1)N1CC[C@@](O)(Cn2cnc(-c3ccccc3)cc2=O)C2(CCCC2)C1
57 | < 500 nM | O=C(NCc1ccc(F)cc1F)N1CC[C@@](O)(Cn2cnc(-c3ccccc3)cc2=O)C2(CCCC2)C1

— ChEMBL document CHEMBL5052842, “Pharmaceutical compounds and their use as inhibitors of ubiquitin specific protease 19 (usp19)” (2020)
